Measured values reported in paper PMC3258025 (Molecular Cancer Therapeutics, 2010).

Experiments:
OCT3 = target: T1, OCT3 (Homo sapiens, UniProt O75751); conditions: corticosterone 10 μmol/L, P < 0.001
T1 sequence (O75751 1-556): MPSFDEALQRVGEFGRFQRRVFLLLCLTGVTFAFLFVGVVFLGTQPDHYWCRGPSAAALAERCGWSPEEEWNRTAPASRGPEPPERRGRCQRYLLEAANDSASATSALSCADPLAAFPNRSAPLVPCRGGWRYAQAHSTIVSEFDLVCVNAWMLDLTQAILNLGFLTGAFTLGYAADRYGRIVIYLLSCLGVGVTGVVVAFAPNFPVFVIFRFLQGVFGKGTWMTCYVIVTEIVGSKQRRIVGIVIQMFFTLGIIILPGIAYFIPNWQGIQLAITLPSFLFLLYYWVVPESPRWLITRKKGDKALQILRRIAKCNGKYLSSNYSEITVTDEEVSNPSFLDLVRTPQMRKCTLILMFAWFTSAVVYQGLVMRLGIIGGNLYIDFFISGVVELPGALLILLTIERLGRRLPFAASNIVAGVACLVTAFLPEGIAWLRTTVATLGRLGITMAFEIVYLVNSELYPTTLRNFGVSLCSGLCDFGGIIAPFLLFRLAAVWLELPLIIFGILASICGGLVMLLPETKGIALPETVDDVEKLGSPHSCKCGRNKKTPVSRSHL

HEK-hOCT1 cells = test: MTT cytotoxicity assay in OCT1-transfected HEK293 cells; assay type: cell-based, human; conditions: disopyramide 150 μmol/L
OCT1 [1] = target: T2, OCT1 (Homo sapiens, UniProt O15245); test: Platinum-DNA adduct formation in HEK-hOCT1 cells; assay type: cell-based; conditions: disopyramide 150 μmol/L, P < 0.001
T2 sequence (O15245 1-554): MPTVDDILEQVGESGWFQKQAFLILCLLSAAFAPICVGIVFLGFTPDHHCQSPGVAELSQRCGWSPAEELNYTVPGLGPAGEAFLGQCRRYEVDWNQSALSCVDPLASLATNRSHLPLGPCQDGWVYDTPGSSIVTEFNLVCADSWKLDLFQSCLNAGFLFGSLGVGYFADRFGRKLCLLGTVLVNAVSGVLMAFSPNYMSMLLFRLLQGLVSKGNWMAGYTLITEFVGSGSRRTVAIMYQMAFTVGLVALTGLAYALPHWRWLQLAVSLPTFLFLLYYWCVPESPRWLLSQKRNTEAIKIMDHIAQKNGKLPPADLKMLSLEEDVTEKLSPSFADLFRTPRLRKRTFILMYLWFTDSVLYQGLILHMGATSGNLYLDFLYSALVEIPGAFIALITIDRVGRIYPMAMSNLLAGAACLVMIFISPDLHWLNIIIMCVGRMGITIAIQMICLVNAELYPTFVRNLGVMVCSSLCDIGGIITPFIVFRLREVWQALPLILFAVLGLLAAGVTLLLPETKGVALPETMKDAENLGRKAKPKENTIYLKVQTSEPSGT

HEK293 cells = test: MTT cytotoxicity of the OCT inhibitors themselves; assay type: cell-based, human; conditions: same experimental conditions as picoplatin MTT assay; data not shown
[2] = test system: lung cancer cell lines (A549, H460, H838, and H1703); test: MTT cytotoxicity, summary over the four lung cancer cell lines; assay type: cell-based, human; conditions: cimetidine 3 mmol/L, 4-hour exposure
OCT1 [3] = target: T2, OCT1; conditions: 10 μmol/L, 30 minutes; picoplatin in PB-Cl, monoaqua and diaqua complexes in PB-SO4

C[C@]12C[C@H](O)[C@H]3[C@@H](CCC4=CC(=O)CC[C@@]43C)[C@@H]1CC[C@@H]2C(=O)CO [corticosterone]
Effect of OCT3 inhibitor on picoplatin-DNA adduct level in HEK-hOCT3 cells (OCT3): completely inhibited

CC(C)N(CCC(C(N)=O)(c1ccccc1)c1ccccn1)C(C)C (centres unmarked) [disopyramide]
Increase of picoplatin IC50 by coincubation of OCT1 inhibitor (HEK-hOCT1 cells): 5.9 fold | Effect of OCT1 inhibitor on platinum-DNA adduct formation in HEK-hOCT1 cells (OCT1 [1]): inhibitable | Concentration up to which the inhibitor itself did not exhibit any cytotoxicity (HEK293 cells): > 400 µM

N.N.[Cl][Pt][Cl] [Cisplatin]
Change in IC50 values in the presence of cimetidine [2]: no significant change in the IC50 values

N.N.O=C([O-])C1(C(=O)[O-])CCC1.[Pt+2] [Carboplatin]
Change in IC50 values in the presence of cimetidine [2]: no significant change in the IC50 values

Cc1cccc[n+]1[Pt-2]([NH3+])([OH2+])[Cl] (centres unmarked) [monoaqua complex of picoplatin, [Pt(NH3)(2-Pic)(H2O)(Cl)]+]
Preference of platinum uptake in OCT1-expressing cells over the corresponding EV cells (OCT1 [3]): equal additional preference in OCT1-expressing cells

CN/C(=N/CCSCc1nc[nH]c1C)NC#N [cimetidine]
Concentration up to which the inhibitor itself did not exhibit any cytotoxicity (HEK293 cells): > 5000 µM
